The target of this test is T1, hVDAC2 (Homo sapiens, UniProt P45880).
T1 sequence (P45880 2-294): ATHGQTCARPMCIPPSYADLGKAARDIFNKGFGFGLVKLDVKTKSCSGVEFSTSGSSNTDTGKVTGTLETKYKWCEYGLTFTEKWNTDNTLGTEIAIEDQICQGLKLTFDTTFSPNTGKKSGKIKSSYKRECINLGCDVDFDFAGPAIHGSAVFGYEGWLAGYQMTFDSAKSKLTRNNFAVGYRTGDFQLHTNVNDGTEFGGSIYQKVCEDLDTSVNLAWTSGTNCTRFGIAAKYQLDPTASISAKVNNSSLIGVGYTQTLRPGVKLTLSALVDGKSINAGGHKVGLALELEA
The experiment in a line: biochemical.

Broadly, the EC50 is the midpoint of the concentration-response curve. Low readings indicate a more potent agent, high ones a less potent agent. Turning to `CCOc1ccccc1-n1c(C(C)N2CCN(C(=O)COc3ccc(Cl)cc3)CC2)nc2ccccc2c1=O` (stereo not shown) [erastin], the 50% effective concentration (EC50) was determined as 52.6 ± 28.2 nM.

The values are drawn from publication PMC3082971 (Biochemistry, 2011).
